Measured values as given in PMC7797783, “Identification of Active Compounds From Yi Nationality Herbal Formula Wosi Influencing COX-2 and VCAM-1 Signaling” (Frontiers in Pharmacology, 2020).
Where “and” joins values, the source holds several entries; their conditions need not be identical. Equal entries are not always repeated. Blank lines part the entries; values can stand above or below the molecule they belong to.

What was measured:
COX-1 = molecular target: T1, COX-1 (Ovis aries, UniProt P05979); assay: In vitro cyclooxygenase inhibition assay (colorimetric COX inhibitor screening kit, PGE2 synthesis), COX-1; assay type: biochemical; conditions: duplicate determinations; 0.01 to 550 μM
T1 construct: purchased Cayman Chemical Company 560131
T1 sequence (P05979 25-600): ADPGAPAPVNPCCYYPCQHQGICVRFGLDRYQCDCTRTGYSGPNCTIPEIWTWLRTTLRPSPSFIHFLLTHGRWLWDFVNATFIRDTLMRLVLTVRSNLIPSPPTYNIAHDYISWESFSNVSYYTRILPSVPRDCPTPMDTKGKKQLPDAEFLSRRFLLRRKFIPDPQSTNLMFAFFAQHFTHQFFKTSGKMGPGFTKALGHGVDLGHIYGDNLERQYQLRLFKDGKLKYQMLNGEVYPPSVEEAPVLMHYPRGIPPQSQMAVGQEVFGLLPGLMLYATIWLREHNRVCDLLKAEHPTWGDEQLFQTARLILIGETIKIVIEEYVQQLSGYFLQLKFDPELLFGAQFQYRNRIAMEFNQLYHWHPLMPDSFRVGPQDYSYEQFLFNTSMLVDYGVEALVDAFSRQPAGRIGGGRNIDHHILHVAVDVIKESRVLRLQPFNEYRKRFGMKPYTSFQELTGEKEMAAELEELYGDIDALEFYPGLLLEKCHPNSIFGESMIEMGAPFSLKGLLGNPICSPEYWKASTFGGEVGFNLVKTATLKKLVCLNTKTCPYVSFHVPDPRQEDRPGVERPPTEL

COX-2 = molecular target: T2, COX-2 (Homo sapiens, UniProt P35354); assay: In vitro cyclooxygenase inhibition assay (colorimetric COX inhibitor screening kit, PGE2 synthesis), COX-2; assay type: biochemical; conditions: for IC50: duplicate determinations, 0.01 to 550 μM; for COX-2/COX-1 selectivity ratio: ratio of IC50 values (μM)
T2 construct: purchased Cayman Chemical Company 560131
T2 sequence (P35354 18-604): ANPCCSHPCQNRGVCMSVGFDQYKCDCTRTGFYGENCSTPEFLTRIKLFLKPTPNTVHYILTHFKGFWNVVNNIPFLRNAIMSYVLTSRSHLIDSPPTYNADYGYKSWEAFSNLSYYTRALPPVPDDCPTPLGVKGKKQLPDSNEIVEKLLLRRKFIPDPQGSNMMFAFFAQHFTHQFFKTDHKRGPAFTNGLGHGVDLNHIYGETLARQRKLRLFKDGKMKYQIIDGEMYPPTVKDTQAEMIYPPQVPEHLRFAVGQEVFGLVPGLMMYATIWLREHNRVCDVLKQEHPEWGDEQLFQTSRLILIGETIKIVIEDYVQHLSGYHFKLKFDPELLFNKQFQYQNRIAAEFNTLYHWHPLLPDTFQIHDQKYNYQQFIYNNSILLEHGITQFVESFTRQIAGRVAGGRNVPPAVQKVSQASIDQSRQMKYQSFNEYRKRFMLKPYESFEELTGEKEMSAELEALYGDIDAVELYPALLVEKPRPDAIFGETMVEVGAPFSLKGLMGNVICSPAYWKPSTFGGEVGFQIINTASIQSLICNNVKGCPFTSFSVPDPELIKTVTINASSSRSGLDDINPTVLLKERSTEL

hyperuricemia rats = assay: Hyperuricemia rat model (adenine/dry yeast), uric acid in serum and urine; assay type: in vivo, Sprague-Dawley (SD) rats; conditions: oral, 5 days, Wosi 0.5, 1, 2 g/kg, vs model group
Method: The rats were divided into six groups, and each group comprised of 10 animals which were control, model, Benzbromarone (0.01 mg/kg), Wosi (0.5, 1, and 2 g/kg) groups. Briefly, 10% dry yeast solution of 1.25% adenine (10 ml/kg) was given orally administration for 15 consecutive days to induce the hyperuricemia in each animal except those of control groups. The solution of 0.5% CMC-Na was given to the control groups. On the 10th day, the Wosi and Benzbromarone were orally administered continuously 24 h 5 days. Normal saline was given to the control and model groups. Collecting 14th and 15th days of rat urine (24 h) and recording the volume. It was centrifuged at 3,500 g for 5 min to remove the precipitations. On the 15th day, rats were first anesthetized with pentobarbital sodium (i.p., 70 mg/kg body weight), 1 h after the final drug treatment. Then the blood sample was collected and centrifuged at 3000 g for 5 min to obtain the serum. Serum were kept under −20°C.
According to manufacturer’s instructions, using a standard diagnostic kit, was used in order to evaluate the concentration of uric acid concentration in serum and urine.

[1] = system: COX-2 and VCAM-1 protein expression; assay: Immunohistochemistry of COX-2 and VCAM-1 protein in ankle joint synovial tissue of MSU-induced rats; assay type: in vivo, Sprague-Dawley (SD) rats; conditions: 7 days, colchicine 0.2 mg/kg
Method: (§1) Rats were divided as aforementioned. Wosi at three doses (0.5, 1, and 2 g/kg) were orally administration once daily for 7 days in Wosi groups. Meanwhile, colchicine was orally administration once daily for 7 days in colchicine groups. The injection of the MSU crystal was performed on the fifth day for each animal except those of control groups. 0.9% sterile saline was given to the control group. On the seventh day, rats were first anesthetized with pentobarbital sodium (i.p., 70 mg/kg body weight) at 30 min after the last dosing, Blood samples were taken from rat femoral artery with heparinized needles which were allowed to clot for 1 h at room temperature and centrifuged at 3,000 g for 10 min to obtain serum. Serum samples were stored at −20°C until the ELISA testing, then rats were sacrificed by femoral artery exsanguination. Meanwhile, the ankle joint surrounding tissues were collected for the immunohistochemical analyze and frozen at −80°C.
The method of immunohistochemical staining for the ankle joint was as following the previous studies. Briefly, the sections were deparaffinized and […] by xylene and ethanol. […] Finally, the sections were washed with TBS three times, and antibody binding was detected using 3,3′-diaminobenzidine tetrahydrochloride (DAB). […] Stained sections were dehydrated and then each section was analyzed by microscope and image output system.

[2] = system: serum cytokines IL-6, IL-1β, IL-2, IL-10, IFN-γ; assay: Serum inflammatory cytokines (ELISA) in MSU-induced rats; assay type: in vivo, Sprague-Dawley (SD) rats; conditions: oral 7 days, Wosi 0.5, 1, 2 g/kg, colchicine 0.2 mg/kg
Method: as §1
The levels of interleukin 6 (IL-6), interleukin 1 beta, interleukin 2 (IL-2), interleukin 10 (IL-10), and interferon gamma (IFN-γ) in the serum were measured using ELISA kits according to manufacturer’s instructions.

cyclooxygenase-2 = system: cyclooxygenase-2; design: method as in Ringbom et al., 1998; conditions: ref Ringbom et al., 1998; cited from earlier work

- IC50 (COX-1): 443 µM
- IC50 (COX-2): 298 µM
- COX-2/COX-1 selectivity ratio (COX-2): 0.67
Structure (SMILES): C[C@@H]1O[C@@H](O[C@@H]2[C@@H](O)[C@H](O[C@H]3CC[C@]4(C)[C@H]5CC=C6[C@@H]7CC(C)(C)CC[C@]7(C(=O)O)CC[C@@]6(C)[C@]5(C)CC[C@H]4C3(C)C)O[C@H](C(=O)O)[C@H]2O)[C@H](O)[C@H](O)[C@H]1O [Compound a, 3-O-[α-L-pyranrhamnose(1-3)-β-D-pyranglucuronic acid]-oleanolic acid]

- IC50 (COX-1): 488 µM
- IC50 (COX-2): 294 µM
- COX-2/COX-1 selectivity ratio (COX-2): 0.60
Structure (SMILES): CC1(C)CC[C@]2(C(=O)O[C@@H]3O[C@H](CO)[C@@H](O)[C@H](O)[C@H]3O)CC[C@]3(C)C(=CC[C@@H]4[C@@]5(C)CC[C@H](O[C@@H]6O[C@H](C(=O)O)[C@@H](O)[C@H](O)[C@H]6O)C(C)(C)[C@@H]5CC[C@]43C)[C@@H]2C1 [Compound b, 3-O-(β-D-pyranglucuronic acid)-oleanolic acid-28-O-β-D-pyran glucoside]

- IC50 (COX-1): 538 µM
- IC50 (COX-2): 384 µM and 349 µM
- COX-2/COX-1 selectivity ratio (COX-2): 0.65 and 0.64
Structure (SMILES): C[C@@H]1O[C@@H](O[C@@H]2[C@@H](O)[C@H](O[C@H]3CC[C@]4(C)[C@H]5CC=C6[C@@H]7CC(C)(C)CC[C@]7(C(=O)O[C@@H]7O[C@H](CO)[C@@H](O)[C@H](O)[C@H]7O)CC[C@@]6(C)[C@]5(C)CC[C@H]4C3(C)C)O[C@H](C(=O)O)[C@H]2O)[C@H](O)[C@H](O)[C@H]1O [Compound c, 3-O-[α-L-pyranrhamnose(1-3)-β-D-pyranglucuronic acid]-oleanolic acid-28-O-β-D-pyran glucoside]

Structure (SMILES): CCc1oc2ccccc2c1C(=O)c1cc(Br)c(O)c(Br)c1 [benzbromarone, Benzbromarone]
- serum level of uric acid (hyperuricemia rats): recovered to that of the normal animals
- urine uric acid excretion (24 h) (hyperuricemia rats): recovered to that of the normal animals

Structure (SMILES): COc1cc2c(c(OC)c1OC)-c1ccc(OC)c(=O)cc1[C@@H](NC(C)=O)CC2 [colchicine, Colchicine]
- protein expression of VCAM-1 in synovial tissue (IHC, IOD) ([1]; Wosi 0.5, 1, 2 g/kg): recovered to that of the normal animals
- protein expression of COX-2 in synovial tissue (IHC, IOD) ([1]; Wosi particularly at 0.5 and 2 g/kg/day): recovered to that of the normal animals
- serum level of IFN-γ [2]: inhibited IL-2, IL-1β, IL-6, and IFN-γ secretion
- serum level of IL-1β [2]: inhibited IL-2, IL-1β, IL-6, and IFN-γ secretion
- serum level of IL-2 [2]: inhibited IL-2, IL-1β, IL-6, and IFN-γ secretion
- serum level of IL-6 [2]: inhibited IL-2, IL-1β, IL-6, and IFN-γ secretion
- serum level of IL-10 [2]: increased IL-10 secretion

Structure (SMILES): CC1(C)CC[C@]2(C(=O)O)CC[C@]3(C)C(=CC[C@@H]4[C@@]5(C)CC[C@H](O)C(C)(C)[C@@H]5CC[C@]43C)[C@@H]2C1 [oleanolic acid]
- selectivity of inhibition of cyclooxygenase-2 catalyzed prostaglandin biosynthesis (cyclooxygenase-2): selective inhibitors of cyclooxygenase-2 catalyzed prostaglandin biosynthesis

Structure (SMILES): C[C@H]1[C@H](C)CC[C@]2(C(=O)O)CC[C@]3(C)C(=CC[C@@H]4[C@@]5(C)CC[C@H](O)C(C)(C)[C@@H]5CC[C@]43C)[C@H]12 [ursolic acid]
- selectivity of inhibition of cyclooxygenase-2 catalyzed prostaglandin biosynthesis (cyclooxygenase-2): selective inhibitors of cyclooxygenase-2 catalyzed prostaglandin biosynthesis
